According to patent US9734575B2, “Method for assessing cell aging” (CHRONOS THERAPEUTICS LIMITED, priority 2013, dated 2017):

System: AM134bus-5 mutant C. elegans
Assay: FUDR treatment (transfer and topical) to prevent second generation progeny in synchronised worm populations on multi-well plates
Type: in vivo, Caenorhabditis elegans
Experimental: Topical and transfer methods of FUDR application were compared and the optimal concentration of the FUDR on 24 well, 12 well and 6 well plates, assessed.
AM134bus-5 and bus-8 drug sensitive worms were synchronized by bleaching and then plated onto multi-well plates and allowed to develop to adulthood. The adults in half of the wells were transferred to a separate well which had been soaked with varying amounts of FUDR solution using M9 buffer. The remaining wells were treated topically with FUDR.
The cultures were then regularly imaged by bright field microscopy and fed with OP50 when necessary.

## O=c1[nH]c(=O)n([C@H]2C[C@H](O)[C@@H](CO)O2)cc1F [FUDR, 2′-Deoxy-5-fluorouridine]
6 well plates, FUDR 2 μg/ml (25 μl of 10 mg/ml to 5 ml NGM), topical and transfer
  progeny after 11 days: no progeny can be observed
6 well plates, volume of 10 mg/ml FUDR to 5 ml of NGM, 1, 5, 10, 25 and 50 μl tested
  lowest effective dose at preventing the development of progeny: 25 µL
12 well plate (1.7 ug/ml in 2.5 ml NGM)
  optimal addition of 10 mg/ml FUDR per well for preventing progeny worms from developing: 0.015 mL
12 well plates, FUDR 1.7 μg/ml (15 μl of 10 mg/ml to 2.5 ml NGM), topical application
  progeny after 11 days: no progeny can be observed
12 well plates, volume of 10 mg/ml FUDR to 2.5 ml of NGM, 1, 5, 10, 15 and 20 μl tested
  lowest effective dose at preventing the development of progeny: 15 µL
24 well plates, FUDR 2 μg/ml (5 μl of 10 mg/ml to 1 ml NGM), topical and transfer method
  progeny after 11 days: progeny can be observed
